Data taken from PubChem BioAssay (NCI).
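Each compound was tested at five concentrations against cells in 96-well plates for 48 hours. GI50 = concentration required for 50% inhibition of growth. Definition used: TGI = concentration required for complete inhibition of growth.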 Where a SMILES comes first, the peptide text is derived from it. [ ]: non-standard residue; d: D form. The star is where a group is joined. ξ: configuration not given here. 4Abz = Nc1ccc(C(=O)O)cc1; ξL = CC(C)CC(N)C(=O)O; NHOH = ON*

Legend:
Assay in all cases: NCI-60 cell line screen, 48 h
SF-295 CNS = system: SF-295 CNS
A549 NSCLC = system: A549 NSCLC
SF-539 CNS = system: SF-539 CNS
U251 CNS = system: U251 CNS
OVCAR-5 ovarian = system: OVCAR-5 ovarian
UO-31 renal = system: UO-31 renal
MALME-3M melanoma = system: MALME-3M melanoma
COLO 205 colon = system: COLO 205 colon
K-562 leukemia = system: K-562 leukemia
SR leukemia = system: SR leukemia

## O=C1/C=C(/c2ccc(O)cc2)[C@H](O)Cc2ccc(OC3OC(CO)C(O)C(O)C3O)cc2O1 (stereo partly drawn) (tested in a mixture with another compound)
SF-295 CNS
  TGI: > 100 µM
A549 NSCLC
  TGI: > 100 µM
SF-539 CNS
  TGI: > 100 µM
U251 CNS
  TGI: > 100 µM
OVCAR-5 ovarian
  TGI: > 100 µM
UO-31 renal
  TGI: > 100 µM
MALME-3M melanoma
  TGI: > 100 µM
COLO 205 colon
  TGI: > 100 µM

## COc1ccc(OC)c(-c2cc(-c3ccc(Cl)cc3)nn2-c2ccc(S(N)(=O)=O)cc2)c1
SF-295 CNS
  GI50: 17.2 µM
  TGI: 44.4 µM
A549 NSCLC
  GI50: 7.84 µM
  TGI: 51.9 µM
SF-539 CNS
  GI50: 17.6 µM
  TGI: 34.3 µM
OVCAR-5 ovarian
  GI50: 12.8 µM
  TGI: 28.7 µM
UO-31 renal
  GI50: 21.8 µM
  TGI: > 100 µM
K-562 leukemia
  GI50: 2.07 µM
  TGI: 4.87 µM

## NC(=O)c1ncn(C2CCC(CP(=O)(O)O)C2)c1N (stereo not drawn)
SR leukemia
  TGI: > 100 µM
SF-295 CNS
  TGI: > 100 µM
A549 NSCLC
  TGI: > 100 µM
SF-539 CNS
  TGI: > 100 µM
U251 CNS
  TGI: > 100 µM
OVCAR-5 ovarian
  TGI: > 100 µM
UO-31 renal
  TGI: > 100 µM
MALME-3M melanoma
  TGI: > 100 µM
COLO 205 colon
  TGI: > 100 µM

## COc1ccc(-n2cc(-c3ccc(Cl)cc3)[nH]c2=S)cc1Cl
SF-295 CNS
  GI50: 22 µM
  TGI: 57.7 µM
A549 NSCLC
  GI50: 46.6 µM
  TGI: > 100 µM
SF-539 CNS
  GI50: 19.9 µM
  TGI: 44.3 µM
U251 CNS
  GI50: 32.3 µM
  TGI: > 100 µM
OVCAR-5 ovarian
  GI50: > 100 µM
  TGI: > 100 µM
UO-31 renal
  GI50: 19.1 µM
  TGI: 47.8 µM
MALME-3M melanoma
  GI50: > 100 µM
  TGI: > 100 µM
K-562 leukemia
  GI50: > 100 µM
  TGI: > 100 µM
COLO 205 colon
  GI50: > 100 µM
  TGI: > 100 µM

## O=C1C=Cc2cc3ccccc3c3cccc1c23
SF-295 CNS
  GI50: 7.65 µM
  TGI: 35.8 µM
A549 NSCLC
  GI50: 1.43 µM
  TGI: 22.8 µM
U251 CNS
  GI50: 4.38 µM
  TGI: 43.1 µM
OVCAR-5 ovarian
  GI50: 3.44 µM
  TGI: 27.5 µM
UO-31 renal
  GI50: 7.31 µM
  TGI: > 100 µM
K-562 leukemia
  GI50: 5.59 µM
  TGI: > 100 µM
COLO 205 colon
  GI50: 8.41 µM
  TGI: > 100 µM

## Cc1c(Br)cccc1NC(=O)c1sc2nc3c(cc2c1N)CN(Cc1ccccc1)CC3
SR leukemia
  GI50: 0.107 µM
  TGI: > 50 µM
SF-295 CNS
  GI50: 0.129 µM
  TGI: 9.42 µM
A549 NSCLC
  GI50: 0.491 µM
  TGI: 19.6 µM
SF-539 CNS
  GI50: 0.158 µM
  TGI: 0.858 µM
U251 CNS
  GI50: 0.242 µM
  TGI: 5.58 µM
OVCAR-5 ovarian
  GI50: 0.289 µM
  TGI: > 50 µM
UO-31 renal
  GI50: 0.412 µM
  TGI: > 50 µM
MALME-3M melanoma
  GI50: 0.256 µM
  TGI: 6.04 µM

## CCCCCCCCOCC(O)COC (stereo not drawn)
SR leukemia
  TGI: > 100 µM
SF-295 CNS
  TGI: > 100 µM
A549 NSCLC
  TGI: > 100 µM
U251 CNS
  TGI: > 100 µM
OVCAR-5 ovarian
  TGI: > 100 µM
UO-31 renal
  TGI: > 100 µM
MALME-3M melanoma
  TGI: > 100 µM
K-562 leukemia
  TGI: > 100 µM
COLO 205 colon
  TGI: > 100 µM

## COc1ccc(/C=N\N2C(=O)Cc3ccccc32)cc1
SF-295 CNS
  TGI: > 100 µM
A549 NSCLC
  TGI: > 100 µM
SF-539 CNS
  TGI: > 100 µM
U251 CNS
  TGI: > 100 µM
OVCAR-5 ovarian
  TGI: > 100 µM
UO-31 renal
  TGI: > 100 µM
MALME-3M melanoma
  TGI: > 100 µM
K-562 leukemia
  TGI: > 100 µM
COLO 205 colon
  TGI: > 100 µM

## COc1cc(C2CC(c3ccc(C)cc3)=NN2C(C)=O)ccc1Oc1ccnc2cc(Cl)ccc12 (stereo not drawn)
SR leukemia
  GI50: > 100 µM
  TGI: > 100 µM
SF-295 CNS
  GI50: 2.52 µM
  TGI: > 100 µM
SF-539 CNS
  GI50: 11.7 µM
  TGI: > 100 µM
U251 CNS
  GI50: 1.41 µM
  TGI: > 100 µM
OVCAR-5 ovarian
  GI50: > 100 µM
  TGI: > 100 µM
MALME-3M melanoma
  GI50: > 100 µM
  TGI: > 100 µM
K-562 leukemia
  GI50: > 100 µM
  TGI: > 100 µM
COLO 205 colon
  GI50: > 100 µM
  TGI: > 100 µM

## COC(=O)C1=C(O)C(C(=O)OC)[C@@]2(O)[C@@H](C(=O)OC)C(c3ccccc3C(F)(F)F)C[C@@H]1[C@@H]2C(=O)OC (stereo partly drawn)
SR leukemia
  GI50: 2.82 µM
  TGI: 62.4 µM
A549 NSCLC
  GI50: 10.4 µM
  TGI: 27 µM
SF-539 CNS
  GI50: 2.14 µM
  TGI: 5.71 µM
U251 CNS
  GI50: 2.01 µM
  TGI: 7.28 µM
OVCAR-5 ovarian
  GI50: 17.4 µM
  TGI: 33.3 µM
UO-31 renal
  GI50: 13 µM
  TGI: 26.5 µM
K-562 leukemia
  GI50: 2.15 µM
  TGI: 9.52 µM
COLO 205 colon
  GI50: 0.175 µM
  TGI: 2.27 µM

## S=c1sc2ccccc2n1CN1CCN(Cc2ccccc2)CC1
SF-295 CNS
  TGI: > 100 µM
A549 NSCLC
  TGI: > 100 µM
SF-539 CNS
  TGI: > 100 µM
U251 CNS
  TGI: > 100 µM
OVCAR-5 ovarian
  TGI: > 100 µM
UO-31 renal
  TGI: > 100 µM
K-562 leukemia
  TGI: > 100 µM
COLO 205 colon
  TGI: > 100 µM

## C=C1c2c(C)nn(-c3ccccc3)c2N(C)C23C[C@@H]1C1(C)c4c(C)nn(-c5ccccc5)c4N(C)C(C)(C[C@H]12)C3 (stereo partly drawn)
A549 NSCLC
  GI50: 2.37 µM
  TGI: > 100 µM
SF-539 CNS
  GI50: 26.7 µM
  TGI: > 100 µM
U251 CNS
  GI50: 4.44 µM
  TGI: 31.6 µM
OVCAR-5 ovarian
  GI50: > 100 µM
  TGI: > 100 µM
MALME-3M melanoma
  GI50: 4.19 µM
  TGI: 93.5 µM

## COC(=O)c1ccc2n[se]nc2c1
SR leukemia
  TGI: > 100 µM
SF-295 CNS
  TGI: > 100 µM
A549 NSCLC
  TGI: > 100 µM
SF-539 CNS
  TGI: > 100 µM
U251 CNS
  TGI: > 100 µM
OVCAR-5 ovarian
  TGI: > 100 µM
UO-31 renal
  TGI: > 100 µM
MALME-3M melanoma
  TGI: > 100 µM
K-562 leukemia
  TGI: > 100 µM

## COc1ccc2c(c1)C(CCN)C(=O)N2 (stereo not drawn)
SF-295 CNS
  TGI: > 100 µM
A549 NSCLC
  TGI: > 100 µM
SF-539 CNS
  TGI: > 100 µM
U251 CNS
  TGI: > 100 µM
OVCAR-5 ovarian
  TGI: > 100 µM
MALME-3M melanoma
  TGI: > 100 µM
K-562 leukemia
  TGI: > 100 µM
COLO 205 colon
  TGI: > 100 µM

## CC(C)CC(NC(=O)[C@@H]1CCCN1C(=O)CNC(=O)c1ccc(N)cc1)C(=O)N[C@H](C)C(=O)NO (stereo partly drawn) (H-[4Abz]GP[ξL][dA]-{NHOH})
SF-295 CNS
  GI50: > 100 µM
  TGI: > 100 µM
A549 NSCLC
  GI50: > 100 µM
  TGI: > 100 µM
SF-539 CNS
  GI50: > 100 µM
  TGI: > 100 µM
U251 CNS
  GI50: > 100 µM
  TGI: > 100 µM
OVCAR-5 ovarian
  GI50: > 100 µM
  TGI: > 100 µM
UO-31 renal
  GI50: > 100 µM
  TGI: > 100 µM
MALME-3M melanoma
  GI50: > 100 µM
  TGI: > 100 µM
K-562 leukemia
  GI50: > 100 µM
  TGI: > 100 µM
COLO 205 colon
  GI50: > 100 µM
  TGI: > 100 µM

## CCOc1cccc2cccnc12
SF-295 CNS
  TGI: > 100 µM
A549 NSCLC
  TGI: > 100 µM
SF-539 CNS
  TGI: > 100 µM
OVCAR-5 ovarian
  TGI: > 100 µM
UO-31 renal
  TGI: > 100 µM
MALME-3M melanoma
  TGI: > 100 µM
K-562 leukemia
  TGI: > 100 µM
COLO 205 colon
  TGI: > 100 µM

## COC(=O)C(=O)C(C(=O)C(=O)Nc1ccc(Cl)cc1Cl)c1nc2ccc(Cl)cc2[nH]c1=O (stereo not drawn)
SF-295 CNS
  TGI: > 100 µM
A549 NSCLC
  TGI: > 100 µM
SF-539 CNS
  TGI: > 100 µM
U251 CNS
  TGI: > 100 µM
OVCAR-5 ovarian
  TGI: > 100 µM
UO-31 renal
  TGI: > 100 µM
COLO 205 colon
  TGI: > 100 µM

## COc1ccc(-c2ccc(/C=N/n3cnn(CN4CCN(C)CC4)c3=S)o2)c([N+](=O)[O-])c1
SR leukemia
  GI50: 31.5 µM
  TGI: > 100 µM
A549 NSCLC
  GI50: 39.5 µM
  TGI: > 100 µM
SF-539 CNS
  GI50: 17 µM
  TGI: 34.1 µM
U251 CNS
  GI50: 23.5 µM
  TGI: 65.7 µM
OVCAR-5 ovarian
  GI50: 34 µM
  TGI: > 100 µM
UO-31 renal
  GI50: 83.9 µM
  TGI: > 100 µM
MALME-3M melanoma
  GI50: 36.9 µM
  TGI: > 100 µM
K-562 leukemia
  GI50: 33.6 µM
  TGI: > 100 µM
COLO 205 colon
  GI50: 52.8 µM
  TGI: > 100 µM
